Our source for the IC50 values is US20050234065A1, “Dipeptidyl peptidase-IV inhibitors” (Pfizer Inc, priority 2004, published 2005).

Where two headings read alike, the source gives them in different places.

This assay concerns the target T1, DPP-IV (Homo sapiens, UniProt P27487).
T1 construct: purchased Enzyme Systems Products SPE-01
The assay is described as follows: In vitro assay for dipeptidyl peptidase inhibition. It is filed as biochemical. The settings on record: hydrochloride salts, Gly-Pro-4-methoxy B naphthylamide substrate, overnight at 37° C. On the procedure:
150 μL of an enzyme-substrate solution was pipetted into microtiter wells of a polystyrene 96-well plate, and maintained at 4° C. The enzyme-substrate solution comprised 50 μM Gly-Pro-4-methoxy B naphthylamide HCl in 50 mM Tris assay buffer pH 7.3 containing 0.1M sodium chloride, 0.1% (v/v) Triton and 50 μU/mL DPP-IV (Enzyme Systems Products Cat#SPE-01, DPP-IV 5 mU/mL stock). 5 μL/well of compounds of Formula (I) were added, bringing the final compound of Formula (I) concentrations to 3 μM-10 nM per well.
Controls. Enzyme was omitted from four (4) wells, as a reagent blank. 5 μL of 3 mM Diprotin A was added to four wells as a positive quality control, providing a final Diprotin A concentration of 100 μM. To measure total enzyme activity (i.e. a negative control), without the influence of any compounds of Formula (I), 5 μL of distilled water was added to four wells.
The entire assay was incubated overnight (about 14-18 hours) at 37° C.

The mark [1] stands for this setting: read-out: IC50 (concentration of test compound required for 50% inhibition).
The mark [2] stands for this setting: read-out: IC50 (concentration of test compound required for 50% inhibition), bound given in μM.

T1 sequence (P27487 whole entry, species assumed): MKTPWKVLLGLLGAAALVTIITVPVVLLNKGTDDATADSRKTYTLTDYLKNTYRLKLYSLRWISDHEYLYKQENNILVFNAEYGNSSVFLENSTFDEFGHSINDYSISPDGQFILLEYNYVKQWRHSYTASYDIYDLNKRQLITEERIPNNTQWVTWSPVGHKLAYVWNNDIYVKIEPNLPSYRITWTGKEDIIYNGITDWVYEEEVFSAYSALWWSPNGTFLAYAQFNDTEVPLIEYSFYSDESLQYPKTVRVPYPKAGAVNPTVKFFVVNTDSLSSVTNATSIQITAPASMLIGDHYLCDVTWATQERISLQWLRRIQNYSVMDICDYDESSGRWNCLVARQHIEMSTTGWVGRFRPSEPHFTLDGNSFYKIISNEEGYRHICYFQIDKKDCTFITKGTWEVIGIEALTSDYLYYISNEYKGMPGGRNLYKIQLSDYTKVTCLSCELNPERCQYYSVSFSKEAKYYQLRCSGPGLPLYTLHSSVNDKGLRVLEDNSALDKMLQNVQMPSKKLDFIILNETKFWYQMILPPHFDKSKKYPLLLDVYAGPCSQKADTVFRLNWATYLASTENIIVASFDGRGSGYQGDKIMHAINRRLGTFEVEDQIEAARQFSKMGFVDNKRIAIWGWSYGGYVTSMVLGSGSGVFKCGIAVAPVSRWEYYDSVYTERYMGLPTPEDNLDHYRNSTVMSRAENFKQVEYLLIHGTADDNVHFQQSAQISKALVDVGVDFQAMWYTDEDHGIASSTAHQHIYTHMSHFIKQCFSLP

With `N[C@H](C(=O)N1CCCC1)[C@H]1CC[C@H](NC(=O)CC[C@H]2C(=O)OCN2C(=O)OCc2ccccc2)CC1` [Example 10, (4S)-4-{2-[trans-4-((1S-)-1-amino-2-oxo-2-pyrrolidin-1-yl-ethyl)-cyclohexylcarbamoyl]-ethyl}-5-oxo-oxazolidine-3-carboxylic acid benzyl ester], the IC50 under setting [1] was at most 0.1 µM. The same measure, in the same setting: with `N[C@H](C(=O)N1CCC(F)(F)C1)[C@H]1CC[C@H](NC(=O)[C@@H]2CNC(=O)N2C(=O)OCc2ccccc2)CC1` [Example 29, (5S)-5-{trans-4-[(1S)-1-amino-2-(3,3-difluoro-pyrrolidin-1-yl)-2-oxo-ethyl]-cyclohexylcarbamoyl}-2-oxo-imidazolidine-1-carboxylic acid benzyl ester] the figure was at most 0.1 µM; with `Cn1ccc2cc(C(=O)N[C@H]3CC[C@H]([C@H](N)C(=O)N4CCC[C@H]4C#N)CC3)ncc21` [Example 54, N-(trans-4-{(1S)-1-Amino-2-[(2S)-2-cyanopyrrolidin-1-yl]-2-oxoethyl}cyclohexyl)-1-methyl-1H-pyrrolo[2,3-c]pyridine-5-carboxamide], at most 0.1 µM; with `N#C[C@@H]1CCCN1C(=O)[C@@H](N)[C@H]1CC[C@H](NC(=O)c2cc3sccc3cn2)CC1` [Example 57, N-(trans-4-{(1S)-1-amino-2-[(2S)-2-cyanopyrrolidin-1-yl]-2-oxoethyl}cyclohexyl)thieno[3,2-c]pyridine-6-carboxamide], at most 0.1 µM. With `N[C@H](C(=O)N1CCCC1)[C@H]1CC[C@H](NC(=O)CN2C(=O)c3ccccc3/C2=C\c2ccccc2)CC1` [Example 20, N-[trans-4-(1-(1S)-amino-2-oxo-2-pyrrolidin-1-yl-ethyl)-cyclohexyl]-2-(1-benzylidene-3-oxo-1,3-dihydro-isoindol-2-yl)-acetamide], the IC50 under setting [1] is at most 0.1 µM. As to `CN(CC(=O)N[C@H]1CC[C@H]([C@H](N)C(=O)N2CCC[C@H]2C#N)CC1)C(=O)OCc1ccccc1` [Example 37, ({trans-4-[(1S)-1-amino-2-((2S)-2-cyano-pyrrolidin-1-yl)-2-oxo-ethyl]-cyclohexylcarbamoyl}-methyl)-methyl-carbamic acid benzyl ester], under setting [1], the IC50 was at most 0.1 µM.

Regarding `N[C@H](C(=O)N1CCCC1)[C@H]1CC[C@H](NC(=O)[C@@H]2CNC(=O)N2C(=O)OCc2ccccc2)CC1` [Example 9, (5S)-5-[trans-4-((1S)-1-amino-2-oxo-2-pyrrolidin-1-yl-ethyl)-cyclohexylcarbamoyl]-2-oxo-imidazolidine-1-carboxylic acid benzyl ester], the IC50 under setting [1] is at most 0.1 µM. Still for that read-out and setting: the value for `Nc1nccnc1C(=O)N[C@H]1CC[C@H]([C@H](N)C(=O)N2CCC(F)(F)C2)CC1` [Example 32, (S)-3-amino-pyrazine-2-carboxylic acid {trans-4-[1-amino-2-(3,3-difluoro-pyrrolidin-1-yl)-2-oxo-ethyl]-cyclohexyl}-amide] was at most 0.1 µM; that for `NC(=O)c1nccnc1C(=O)N[C@H]1CC[C@H]([C@H](N)C(=O)N2CCCC2)CC1` [Example 19, (S)-pyrazine-2,3-dicarboxylic acid amide [trans-4-(1-amino-2-oxo-2-pyrrolidin-1-yl-ethyl)-cyclohexyl]-amide] was at most 0.1 µM; that for `N[C@H](C(=O)N1CCCC1)[C@H]1CC[C@@H](NC(=O)[C@@H]2CCCN2C(=O)OCc2ccccc2)CC1` [Example 3, (2S)-2-[cis-4-(1-(1S)-amino-2-oxo-2-pyrrolidin-1-yl-ethyl)-cyclohexylcarbamoyl]-pyrrolidine-1-carboxylic acid benzyl ester] was over 0.5 µM. Same read-out and setting: the value for `N[C@H](C(=O)N1CCCC1)[C@H]1CC[C@H](N2Cc3ncccc3C2=O)CC1` [Example 42, 6-[trans-4-((1S)-1-amino-2-oxo-2-pyrrolidin-1-yl-ethyl)-cyclohexyl]-6,7-dihydro-pyrrolo[3,4-b]pyridin-5-one] was at most 0.1 µM; that for `N[C@H](C(=O)N1CCC(F)(F)C1)[C@H]1CC[C@H](NC(=O)[C@@H]2C[C@@H](O)CN2C(=O)OCc2ccccc2)CC1` [Example 31, 2-{trans-4-[1-(1S)-amino-2-(3,3-difluoro-pyrrolidin-1-yl)-2-oxo-ethyl]-cyclohexylcarbamoyl}-(4R)-4-hydroxy-pyrrolidine-1-carboxylic acid benzyl ester] was at most 0.1 µM; that for `N[C@H](C(=O)N1CCCC1)[C@H]1CC[C@H](NC(=O)[C@@H]2COC(=O)N2Cc2ccccc2)CC1` [Example 16, (4S)-3-benzyl-2-oxo-oxazolidine-4-carboxylic acid [trans-4-((1S)-1-Amino-2-oxo-2-pyrrolidin-1-yl-ethyl)-cyclohexyl]-amide] was at most 0.1 µM. Regarding `N[C@H](C(=O)N1CCCC1)[C@H]1CC[C@@H](NC(=O)[C@@H]2COCN2C(=O)OCc2ccccc2)CC1` [Example 6, (4S)-4-[cis-4-((1S)-1-amino-2-oxo-2-pyrrolidin-1-yl-ethyl)-cyclohexylcarbamoyl]-oxazolidine-3-carboxylic acid benzyl ester], the IC50 was over 0.5 µM under setting [1] and at most 1 µM under setting [2]. Take `Cc1cc(C)n2cnc(C(=O)N[C@H]3CC[C@H]([C@H](N)C(=O)N4CCC[C@H]4C#N)CC3)cc12` [Example 59, N-(trans-4-{(1S)-1-amino-2-[(2S)-2-cyanopyrrolidin-1-yl]-2-oxoethyl}cyclohexyl)-5,7-dimethylpyrrolo[1,2-c]pyrimidine-3-carboxamide]: under setting [1], the IC50 was at most 0.1 µM. Still for that read-out and setting: the value for `N[C@H](C(=O)N1CC[C@@H](F)C1)[C@H]1CC[C@H](NC(=O)c2cncc(O)n2)CC1` [Example 53, 6-Hydroxy-pyrazine-2-carboxylic acid {trans-4-[(1S)-1-Amino-2-((3R)-3-fluoro-pyrrolidin-1-yl)-2-oxo-ethyl]-cyclohexyl}-amide] was at most 0.1 µM; that for `N[C@H](C(=O)N1CCCC1)[C@H]1CC[C@H](N2C(=O)O[C@@H](c3ccccc3)C2=O)CC1` [Example 28, 3-[trans-4-((1S)-1-amino-2-oxo-2-pyrrolidin-1-yl-ethyl)-cyclohexyl]-(5S)-5-phenyl-oxazolidine-2,4-dione] was 0.1 to 0.5 µM. The same measure, in the same setting: with `N[C@H](C(=O)N1CCCC1)[C@H]1CC[C@@H](NC(=O)[C@H]2COCN2C(=O)OCc2ccccc2)CC1` [Example 5, (4R)-4-[cis-4-((1S)-1-amino-2-oxo-2-pyrrolidin-1-yl-ethyl)-cyclohexylcarbamoyl]-oxazolidine-3-carboxylic acid benzyl ester] the figure was 0.1 to 0.5 µM. Same read-out and setting: the value for `Nc1ncccc1C(=O)N[C@H]1CC[C@H]([C@H](N)C(=O)N2CCCC2)CC1` [Example 38, (S)-2-amino-N-[trans-4-(1-amino-2-oxo-2-pyrrolidin-1-yl-ethyl)-cyclohexyl]-nicotinamide] was at most 0.1 µM. On to `N#C[C@@H]1CCCN1C(=O)[C@@H](N)[C@H]1CC[C@H](NC(=O)c2cc3occc3cn2)CC1` [Example 61, N-(trans-4-{(1S)-1-amino-2-[(2S)-2-cyanopyrrolidin-1-yl]-2-oxoethyl}cyclohexyl)furo[3,2-c]pyridine-6-carboxamide], for which the IC50 under setting [1] was at most 0.1 µM. For the compound `N[C@H](C(=O)N1CCCC1)[C@H]1CC[C@H](NC(=O)N2CCC[C@H]2COCc2ccccc2)CC1` [Example 25, 2-benzyloxymethyl-pyrrolidine-1-carboxylic acid [trans-4-((1S)-1-Amino-2-oxo-2-pyrrolidin-1-yl-ethyl)-cyclohexyl]-amide], the IC50 under setting [1] is at most 0.1 µM.

For `N#C[C@@H]1CCCN1C(=O)[C@@H](N)[C@H]1CC[C@H](NC(=O)c2cc3ccsc3cn2)CC1` [Example 60, N-(trans-4-{(1S)-1-amino-2-[(2S)-2-cyanopyrrolidin-1-yl]-2-oxoethyl}cyclohexyl)thieno[2,3-c]pyridine-5-carboxamide], the IC50 under setting [1] is at most 0.1 µM. On to `N#C[C@@H]1CCCN1C(=O)[C@@H](N)[C@H]1CC[C@H](N2Cc3ncccc3C2=O)CC1` [Example 44, 1-{(1S)-amino-[trans-4-(5-oxo-5,7-dihydro-pyrrolo[3,4-b]pyridin-6-yl)-cyclohexyl]-acetyl)-(2S)-pyrrolidine-2-carbonitrile], for which, under setting [1], the IC50 is at most 0.1 µM. Turning to `N[C@H](C(=O)N1CCCC1)[C@H]1CC[C@@H](NC(=O)[C@@H]2CNC(=O)N2C(=O)OCc2ccccc2)CC1` [Example 7, (5S)-5-[cis-4-((1S)-1-amino-2-oxo-2-pyrrolidin-1-yl-ethyl)-cyclohexylcarbamoyl]-2-oxo-imidazolidine-1-carboxylic acid benzyl ester], the IC50 is, setting by setting: under setting [1], over 0.5 µM; under setting [2], at most 1 µM. For `N[C@H](C(=O)N1CCC(F)(F)C1)[C@H]1CC[C@H](N2Cc3ncccc3C2=O)CC1` [Example 45, 6-{trans-4-[(1S)-1-amino-2-(3,3-difluoro-pyrrolidin-1-yl)-2-oxo-ethyl]-cyclohexyl}-6,7-dihydro-pyrrolo[3,4-b]pyridin-5-one], the IC50 under setting [1] was at most 0.1 µM. Still for that read-out and setting: the value for `N[C@H](C(=O)N1CCCC1)[C@H]1CC[C@@H](NC(=O)CCC2C(=O)OCN2C(=O)OCc2ccccc2)CC1` (stereo in doubt) [Example 4, (4S)-4-{2-[cis-4-((1S)-1-amino-2-oxo-2-pyrrolidin-1-yl-ethyl)-cyclohexylcarbamoyl]-ethyl}-5-oxo-oxazolidine-3-carboxylic acid benzyl ester] was 0.1 to 0.5 µM.
